# Reference: ChEMBL document CHEMBL3872232, “2-Azetidinones: Synthesis and biological evaluation as potential anti-breast cancer agents” (Eur J Med Chem, 2016)
# Key:
# [1] = Antiproliferative activity against human mammary epithelial cells after 48 hrs by MTT assay; assay type: cell-based, Epithelial cell
# [2] = Antiproliferative activity against human MCF7 cells after 48 hrs by MTT assay; assay type: functional, cell-based; conditions: MCF7, 48 h
# [3] = Antiproliferative activity against human MDA-MB-231 cells after 48 hrs by MTT assay; assay type: functional, cell-based; conditions: MDA-MB-231, 48 h
# [4] = Cell cycle arrest in human MCF7 cells assessed as accumulation at S phase at 5 uM after 24 hrs by propidium iodide staining based flow cytometry (reference value: 4.23%); assay type: functional
# MDA-MB-231 [5] = experiment: Effect on cyclin E mRNA expression in human MDA-MB-231 cells assessed as ratio of cyclin E to GAPDH expression level at 5 uM after 24 hrs by RT-PCR method (reference value: 0.13); assay type: functional
# MDA-MB-231 [6] = experiment: Inhibition of Akt in human MDA-MB-231 cells after 48 hrs by ELISA; assay type: cell-based
# MDA-MB-231 [7] = experiment: Effect on p53 gene expression in human MDA-MB-231 cells assessed as ratio of p53 to beta-actin expression level at 5 uM after 24 hrs by RT-PCR method (reference value: 0.22); assay type: functional
# MCF7 [8] = experiment: Induction of apoptosis in human MCF7 cells assessed as late apoptotic cells at 5 uM after 24 hrs by Annexin V-FITC/propidium iodide staining based flow cytometry (reference value: 2.3%); assay type: functional
# MDA-MB-231 [9] = experiment: Effect on Bid gene expression in human MDA-MB-231 cells assessed as ratio of Bid to beta-actin expression level at 5 uM after 24 hrs by RT-PCR method (reference value: 0.17); assay type: functional
# MDA-MB-231 [10] = experiment: Effect on cyclin D1 mRNA expression in human MDA-MB-231 cells assessed as ratio of cyclin D1 to GAPDH expression level at 5 uM after 24 hrs by RT-PCR method (reference value: 0.71); assay type: functional
# [11] = Cell cycle arrest in human MCF7 cells assessed as accumulation at G2/M phase at 5 uM after 24 hrs by propidium iodide staining based flow cytometry (reference value: 9.29%); assay type: functional
# MDA-MB-231 [12] = experiment: Ratio of Bcl-2 to Bax gene expression in human MDA-MB-231 cells at 5 uM after 24 hrs by RT-PCR method (reference value: 0.03); assay type: functional
# Homo sapiens [13] = species: Homo sapiens; experiment: Inhibition of Akt in human MDA-MB-231 cells assessed as ratio of phosphorylated GSK-3beta to GAPDH expression level at 2 uM after 48 hrs by immunoblot analysis (reference value: 0.14 to 1.50); assay type: cell-based
# Homo sapiens [14] = species: Homo sapiens; experiment: Inhibition of Akt in human MDA-MB-231 cells assessed as ratio of phosphorylated GSK-3beta to GAPDH expression level at 5 uM after 48 hrs by immunoblot analysis (reference value: 0.14 to 1.50); assay type: cell-based
# Homo sapiens [15] = species: Homo sapiens; experiment: Inhibition of Akt in human MDA-MB-231 cells assessed as ratio of phosphorylated GSK-3beta to GAPDH expression level at 10 uM after 48 hrs by immunoblot analysis (reference value: 0.14 to 1.50); assay type: cell-based
# MDA-MB-231 [16] = experiment: Induction of apoptosis in human MDA-MB-231 cells assessed as early apoptotic cells at 5 uM after 24 hrs by Annexin V-FITC/propidium iodide staining based flow cytometry (reference value: 0.5%); assay type: functional
# Homo sapiens [17] = species: Homo sapiens; experiment: Inhibition of Akt in human MDA-MB-231 cells assessed as ratio of phosphorylated Akt to GAPDH expression level at 10 uM after 48 hrs by immunoblot analysis (reference value: 0.33 to 0.81); assay type: cell-based
# Homo sapiens [18] = species: Homo sapiens; experiment: Inhibition of Akt in human MDA-MB-231 cells assessed as ratio of phosphorylated Akt to GAPDH expression level at 2 uM after 48 hrs by immunoblot analysis (reference value: 0.33 to 0.81); assay type: cell-based
# MDA-MB-231 [19] = experiment: Inhibition of Akt phosphorylation in human MDA-MB-231 cells after 48 hrs by immunoblot analysis; assay type: cell-based
# MCF7 [20] = experiment: Induction of apoptosis in human MCF7 cells assessed as early apoptotic cells at 5 uM after 24 hrs by Annexin V-FITC/propidium iodide staining based flow cytometry (reference value: 1.6%); assay type: functional
# [21] = Cell cycle arrest in human MCF7 cells assessed as accumulation at G0/G1 phase at 5 uM after 24 hrs by propidium iodide staining based flow cytometry (reference value: 83.25%); assay type: functional
# MDA-MB-231 [22] = experiment: Induction of apoptosis in human MDA-MB-231 cells assessed as late apoptotic cells at 5 uM after 24 hrs by Annexin V-FITC/propidium iodide staining based flow cytometry (reference value: 1.8%); assay type: functional
# [23] = Safety index, ratio of compound IC50 to colchicine IC50 for human mammary epithelial cells; assay type: ADME, cell-based, Epithelial cell; conditions: read-out: Ratio IC50
# [24] = Cell cycle arrest in human MCF7 cells assessed as accumulation at sub-G1 phase at 5 uM after 24 hrs by propidium iodide staining based flow cytometry (reference value: 3.58%); assay type: functional
# MDA-MB-231 [25] = experiment: Induction of apoptosis in human MDA-MB-231 cells assessed as necrotic cells at 5 uM after 24 hrs by Annexin V-FITC/propidium iodide staining based flow cytometry (reference value: 1.3%); assay type: functional
# MDA-MB-231 [26] = experiment: Effect on p27 mRNA expression in human MDA-MB-231 cells assessed as ratio of p27 to GAPDH expression level at 5 uM after 24 hrs by RT-PCR method (reference value: 0.23); assay type: functional
# MDA-MB-231 [27] = experiment: Effect on Cdk2 mRNA expression in human MDA-MB-231 cells assessed as ratio of Cdk2 to GAPDH expression level at 5 uM after 24 hrs by RT-PCR method (reference value: 0.26); assay type: functional
# MCF7 [28] = experiment: Induction of apoptosis in human MCF7 cells assessed as necrotic cells at 5 uM after 24 hrs by Annexin V-FITC/propidium iodide staining based flow cytometry (reference value: 3.7%); assay type: functional
# Homo sapiens [29] = species: Homo sapiens; experiment: Inhibition of Akt in human MDA-MB-231 cells assessed as ratio of phosphorylated Akt to GAPDH expression level at 5 uM after 48 hrs by immunoblot analysis (reference value: 0.33 to 0.81); assay type: cell-based
# MDA-MB-231 [30] = experiment: Effect on p21 mRNA expression in human MDA-MB-231 cells assessed as ratio of p21 to GAPDH expression level at 5 uM after 24 hrs by RT-PCR method (reference value: 0.02); assay type: functional
# MDA-MB-231 [31] = experiment: Effect on Cdk6 mRNA expression in human MDA-MB-231 cells assessed as ratio of Cdk6 to GAPDH expression level at 5 uM after 24 hrs by RT-PCR method (reference value: 1.37); assay type: functional
# [32] = Homo sapiens, Epithelial cell, 48 h, read-out: IC50
compound,measurement,setting,value
CCOC(=O)/C(=C/c1ccccc1)CN1C(=O)[C@@H](OC)[C@H]1c1ccc(F)cc1,IC50,[1]; epithelial cell,Non-Toxic
same,IC50,[2],18.8 µM
same,IC50,[3],14 µM
CO[C@@H]1C(=O)N(C/C(C#N)=C/c2ccccc2)[C@@H]1c1ccc(Cl)cc1,IC50,[1]; epithelial cell,Non-Toxic
same,IC50,[2],19.8 µM
same,IC50,[3],18 µM
COC(=O)/C(=C/c1ccccc1)CN1C(=O)[C@@H](OC)[C@H]1c1ccccc1,IC50,[1]; epithelial cell,Non-Toxic
same,IC50,[2],12.9 µM
same,IC50,[3],11.1 µM
CO[C@@H]1C(=O)N(C/C(C#N)=C/c2ccccc2)[C@@H]1c1cccc(C)c1,IC50,[1]; epithelial cell,Non-Toxic
same,IC50,[2],11.3 µM
same,IC50,[3],11.1 µM
COC(=O)/C(=C/c1ccccc1)CN1C(=O)[C@@H](OC)[C@H]1c1cccc(F)c1,IC50,[1]; [32],38.5 µM
same,IC50,[2],13.7 µM
same,IC50,[3],34.4 µM
COC(=O)/C(=C/c1ccccc1)CN1C(=O)[C@@H](OC)[C@H]1c1ccc(Cl)cc1Cl,IC50,[1]; [32],70 µM
same,IC50,[3],19 µM
CCOC(=O)/C(=C/c1ccccc1)CN1C(=O)[C@@H](OC)[C@H]1c1ccc(Cl)cc1,IC50,[1]; epithelial cell,Non-Toxic
same,IC50,[2],12.7 µM
same,IC50,[3],11.1 µM
COC(=O)/C(=C/c1ccccc1)CN1C(=O)[C@@H](OC)[C@H]1c1cccc([N+](=O)[O-])c1,IC50,[1]; epithelial cell,Non-Toxic
same,IC50,[2],15 µM
same,IC50,[3],14.4 µM
CCOC(=O)/C(=C/c1ccccc1)CN1C(=O)[C@@H](OC)[C@H]1c1cccc([N+](=O)[O-])c1,IC50,[1]; epithelial cell,Non-Toxic
same,IC50,[2],19.9 µM
same,IC50,[3],14.4 µM
CO[C@@H]1C(=O)N(C/C(C#N)=C/c2ccccc2)[C@@H]1c1ccc(Cl)cc1Cl,IC50,[1]; [32],> 100 µM
same,IC50,[2],31.9 µM
same,IC50,[3],17 µM
CO[C@@H]1C(=O)N(C/C(C#N)=C/c2ccccc2)[C@@H]1c1ccc(Br)cc1,IC50,[1]; epithelial cell,Non-Toxic
CO[C@@H]1C(=O)N(C/C(C#N)=C/c2ccccc2)[C@@H]1c1cccc2ccccc12,IC50,[1]; epithelial cell,Non-Toxic
same,IC50,[2],11.7 µM
COc1ccc(OC)c([C@@H]2[C@H](OC)C(=O)N2C/C(C#N)=C/c2ccccc2)c1,IC50,[1]; [32],> 100 µM
same,IC50,[3],23.4 µM
COC(=O)/C(=C/c1ccccc1)CN1C(=O)[C@@H](OC)[C@H]1c1ccc(Cl)cc1,IC50,[1]; [32],37.9 µM
same,IC50,[2],15.2 µM
same,IC50,[3],15.6 µM
CO[C@@H]1C(=O)N(C/C(C#N)=C/c2ccccc2)[C@@H]1c1ccc2c(c1)OCO2,IC50,[1]; [32],> 100 µM
same,IC50,[2],10.6 µM
COC(=O)/C(=C/c1ccccc1)CN1C(=O)[C@@H](OC)[C@H]1c1cccc(C(F)(F)F)c1,IC50,[1]; [32],71.8 µM
same,IC50,[3],18.2 µM
COC(=O)/C(=C/c1ccccc1)CN1C(=O)[C@@H](OC)[C@H]1c1ccccc1C(F)(F)F,IC50,[1]; epithelial cell,Non-Toxic
same,IC50,[3],17.6 µM
CO[C@@H]1C(=O)N(C/C(C#N)=C/c2ccccc2)[C@@H]1c1ccccc1Br,IC50,[1]; epithelial cell,Non-Toxic
same,IC50,[2],10.8 µM
same,IC50,[3],10.7 µM
COC(=O)/C(=C/c1ccccc1)CN1C(=O)[C@@H](OC)[C@H]1c1cccc(Cl)c1,IC50,[1]; epithelial cell,Non-Toxic
same,IC50,[2],25.1 µM
CO[C@@H]1C(=O)N(C/C(C#N)=C/c2ccccc2)[C@@H]1c1ccc(C)cc1,Activity,[4],4.15%
same,Ratio,MDA-MB-231 [5],0.16
same,inhibition,MDA-MB-231 [6],Dose-dependent effect
same,Ratio,MDA-MB-231 [7],0.17
same,Activity,MCF7 [8],12.8%
same,Ratio,MDA-MB-231 [9],0.32
same,Ratio,MDA-MB-231 [10],0.64
same,Activity,[11],9.43%
same,Ratio,MDA-MB-231 [12],0.02
same,Ratio,Homo sapiens [13],0.04
same,Ratio,Homo sapiens [14],0.15
same,IC50,[1]; epithelial cell,Non-Toxic
same,Ratio,Homo sapiens [15],0.17
same,IC50,[2],9.99 µM
same,Activity,MDA-MB-231 [16],1.3%
same,Ratio,Homo sapiens [17],0.06
same,Ratio,Homo sapiens [18],0.35
same,inhibition,MDA-MB-231 [19],Dose-dependent effect
same,Activity,MCF7 [20],9%
same,Activity,[21],83%
same,Activity,MDA-MB-231 [22],4.1%
same,selectivity ratio,[23],10
same,IC50,[3],9.27 µM
same,Activity,[24],2.22%
same,Activity,MDA-MB-231 [25],1.4%
same,Ratio,MDA-MB-231 [26],0.24
same,Ratio,MDA-MB-231 [27],0.22
same,Activity,MCF7 [28],1.9%
same,Ratio,Homo sapiens [29],0.09
same,Ratio,MDA-MB-231 [30],0.08
same,Ratio,MDA-MB-231 [31],0.51
COC(=O)/C(=C/c1ccccc1)CN1C(=O)[C@@H](OC)[C@H]1c1ccc(OC)cc1,IC50,[1]; epithelial cell,Non-Toxic
same,IC50,[2],11.6 µM
same,IC50,[3],14 µM
COC(=O)/C(=C/c1ccccc1)CN1C(=O)[C@@H](OC)[C@H]1c1ccc(F)cc1,IC50,[1]; [32],27.9 µM
same,IC50,[2],15.6 µM
same,IC50,[3],21.8 µM
